Data reported in patent US9809623B2, “α4β7 peptide monomer and dimer antagonists” (Protagonist Therapeutics, Inc., priority 2014, dated 2017).
Numbered stars: 1 amine (or outer) side, 2 acyl side, 3 side chain; on linkers, the order of the positions; unused ones are H or OH. Bridge positions count the residues as written; N and C are the ends. Square brackets hold non-standard residues; d marks the D form. Peptide text beside a SMILES is read from it. I, II: the chains in the order shown. 2Nal = N[C@@H](Cc1ccc2ccccc2c1)C(=O)O; Diglycolyl = O=C(COCC(=O)[*:2])[*:1]; NMeR = CN[C@@H](CCCNC(=N)N)C(=O)O; Pen = CC(C)(S)[C@H](N)C(=O)O; dNMeK = CN[C@H](CCCCN)C(=O)O

Assays:
[1] = Cysteine/Cystine Redox Stability Assay; assay type: physicochemical; conditions: Table 4-C; ORP where half of the oxidized peptide remains
Experimental: Peptides were diluted to 90 μM by adding 4.545 μl of a 10 mM peptide DMSO stock to 495.45 μl of 100 mM Tris-Cl, pH 7.5. Aliquots of […] were transferred to 8 wells down a column of a 96 well plate. 20 μl of 2.5 mM Cystine in 100 mM Tris-Cl, pH 7.5 was added to each well. Cysteine stock solutions in 100 mM Tris-Cl, pH 7.5 were prepared fresh at the following concentrations: 400 mM, 200 mM, 80 mM, 44 mM, 22 mM, 11 mM, 5.5 mM and blank. At time 0, 25 μl of each cysteine stock solution was added to the 55 μl of cystine/peptide solution, and the mixture was incubated at room temperature for 40 min. The samples were quenched by adding 20 μl of 5M acetic acid and analyzed by reverse phase HPLC. The fraction of oxidized peptide was calculated and plotted against the calculated oxidation reduction potential (ORP) as defined by the Nernst equation. The ORP where half of the oxidized peptide remains is shown below.

Plasma Stability Assay = assay type: in vitro ADME; conditions: rat, Table 4-C, t1/2
Outline: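 Rat plasma at 37° C with gentle shaking, peptide added from 10 mM stock; samples taken at 0, 10, 30, 45, 60, 120 and 180 min and quenched 1:4 with acetonitrile/0.1% formic acid. After centrifugation, supernatants were mixed with internal standard peptide (1 ug/mL) and analysed by LC-MS.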

Intestinal Wash Assay = assay type: in vitro ADME; design: dose or concentration left out as unconfirmed; conditions: rat, rat intestinal wash fluid (small intestine); Table 4-C, t1/2
Experimental: Intestinal wash assay solution was prepared from rats fasted for at least 6 hours prior. The animals were euthanized and a midline incision was made from the point of the jaw to the pubis. The abdomen and chest were opened by making 2 incisions through the anterior chest wall on either side. Hemostats were used to clamp off both ends of the animal's stomach—where the esophagus meets the stomach and where the stomach meets the duodenum. A hemostat was also used to clamp 2-3 cm down the intestine from where the stomach meets the duodenum.
Intestinal wash assay solution was prepared by separating 20 cm of the small intestine from the body. Once separated 20 cm, the end was clamped with a hemostat and the section cut from the body, leaving the hemostats in place on the removed section. 1 mL of chilled saline was drawn up with a 1 mL syringe. One end of the intestine was held up and the clamp removed. Approximately 2-2.5 cm of the gavage needle was inserted into the intestine, and the saline was slowly injected. The fluid was massaged down the length of the intestine using gloved fingers. The gavage needle was removed and the clamp was replaced on the end of the intestine. The intestine was sat straight and a q-tip was run firmly up and down the length of the outside of the intestine approximately 3-6 times to mix the enzymes with the saline. One end of the intestine was held up and some of the fluid was carefully moved at the top down. The clamp was removed and that end of the intestine was set into a small weigh boat on ice. The other end of the intestine was carefully picked up and held vertically. Gloved fingers were gently run down it to squeeze the fluid into the container. The previous steps saline injection and fluid procurement steps were repeated twice using only 0.5 mL of chilled saline. The sample was pipetted from the weigh boat into a centrifuge tube and placed on ice. All intestinal wash samples were spun down in a cold centrifuge at 12,000×g for 10 minutes. The supernatant from the top of each centrifuged sample was pipetted into cryotubes, and kept on ice until use.
Intestinal wash assays were performed using intestinal wash assay solution prepared as described above. A sufficient amount of rat intestinal wash was thawed. For each sample, 200 uL of rat intestinal wash fluid was pipetted into 1.5 mL Eppendorf tubes (number of tubes for experiment=number of test peptides×N). The tubes were pre-incubated for about 10 minutes in a water bath at 37° C.
Peptide working solutions ([…]) were prepared by combining 2 μl of 10 mM DMSO stock with 128 μl 100 mM Tris pH 7.5.
Peptide quench solvent (50% ACN-50% MeOH-5% Formic Acid)+IS (5 ug/ml; 1 ul of 10 mg/mL IS per 2 mL quench solvent) was prepare and a quench plate prepared and placed on ice. 200 ul of quench solution was added to each well of the quench plate for T=0, 10, 20, 30, 60 and 180 min collection.
For each test sample and a positive control, 30 ul of peptide working solution was added to a tube of intestinal wash fluid. The tube was gently vortexed and 30 ul was immediately removed and quenched in T=0 well of quench plate (pipetted directly into the quench solution). This well was covered tightly to prevent evaporation. 30 ul aliquots were removed at T=10 min, T=20 min, T=30 min, T=60 min, and T=180 min, and quenched. When all time points were collected, the quench plate was centrifuged at 10,000 rpm for 10 minutes. 150 uL of each supernatant was transferred to a polypropylene 96-well collection plate. 300 ul Mobile Phase A was added to each collection, and LC/MS/MS analysis was performed to determine the amount or concentration of peptide remaining in each test sample and positive control.

With CC(=O)N[C@H]1CSSC(C)(C)[C@@H](C(=O)N[C@@H](Cc2c[nH]c3ccccc23)C(=O)N[C@H](CCCCNC(=O)COCC(=O)NCCCC[C@@H](NC(=O)[C@H](Cc2c[nH]c3ccccc23)NC(=O)[C@H]2NC(=O)[C@H](CC(C)C)NC(=O)[C@H]([C@@H](C)O)NC(=O)[C@H](CC(=O)O)NC(=O)[C@H](CO)NC(=O)[C@H](CCCNC(=N)N)N(C)C(=O)[C@@H](NC(C)=O)CSSC2(C)C)C(N)=O)C(N)=O)NC(=O)[C@H](CC(C)C)NC(=O)[C@H]([C@@H](C)O)NC(=O)[C@H](CC(=O)O)NC(=O)[C@H](CO)NC(=O)[C@H](CCCNC(=N)N)N(C)C1=O [compound 204, (Ac-C-N-Me-R-S-D-T-L-Pen-W-k-NH2)2-DIG] (I: Ac-C[NMeR]SDTL[Pen]W[dK]-NH2 / II: Ac-C[NMeR]SDTL[Pen]W[dK]-NH2; disulfide I:1-I:7, II:1-II:7 (inferred); linker I:9-II:9 via Diglycolyl (inferred)) the “Cys/CySS (mV)” value [1] was −204 mV, the half-life at 20 μM (Plasma Stability Assay) was over 6 h and the half-life (Intestinal Wash Assay) was over 3 h.
With CC(=O)N[C@@H]1C(=O)N(C)[C@@H](CCCNC(=N)N)C(=O)N[C@@H](CO)C(=O)N[C@@H](CC(=O)O)C(=O)N[C@@H]([C@@H](C)O)C(=O)N[C@@H](CC(C)C)C(=O)N[C@H](C(=O)N[C@@H](Cc2c[nH]c3ccccc23)C(=O)N[C@H](CCCCNC(=O)COCC(=O)NCCCC[C@@H](NC(=O)[C@H](Cc2c[nH]c3ccccc23)NC(=O)[C@H]2NC(=O)[C@H](CC(C)C)NC(=O)[C@H]([C@@H](C)O)NC(=O)[C@H](CC(=O)O)NC(=O)[C@H](CO)NC(=O)[C@H](CCCNC(=N)N)N(C)C(=O)[C@@H](NC(C)=O)C(C)(C)SSC2(C)C)C(N)=O)C(N)=O)C(C)(C)SSC1(C)C [compound 209, (Ac-Pen-N-Me-R-S-D-T-L-Pen-W-k-NH2)2-DIG] (I: Ac-[Pen][NMeR]SDTL[Pen]W[dK]-NH2 / II: Ac-[Pen][NMeR]SDTL[Pen]W[dK]-NH2; disulfide I:1-I:7, II:1-II:7 (inferred); linker I:9-II:9 via Diglycolyl (inferred)) the “Cys/CySS (mV)” value [1] was under −300 mV, the half-life at 20 μM (Plasma Stability Assay) was over 3 h and the half-life (Intestinal Wash Assay) was over 3 h.
With CC(=O)N[C@@H]1C(=O)N[C@@H](CCCNC(=N)N)C(=O)N[C@@H](CO)C(=O)N[C@@H](CC(=O)O)C(=O)N[C@@H]([C@@H](C)O)C(=O)N[C@@H](CC(C)C)C(=O)N[C@H](C(=O)N[C@H](CCCCNC(=O)COCC(=O)NCCCC[C@@H](NC(=O)[C@@H]2CSSC(C)(C)[C@H](NC(C)=O)C(=O)N[C@@H](CCCNC(=N)N)C(=O)N[C@@H](CO)C(=O)N[C@@H](CC(=O)O)C(=O)N[C@@H]([C@@H](C)O)C(=O)N[C@@H](CC(C)C)C(=O)N2)C(N)=O)C(N)=O)CSSC1(C)C [compound 207, (Ac-Pen-R-S-D-T-L-C-k-NH2)2-DIG] (I: Ac-[Pen]RSDTLC[dK]-NH2 / II: Ac-[Pen]RSDTLC[dK]-NH2; disulfide I:1-I:7, II:1-II:7 (inferred); linker I:8-II:8 via Diglycolyl (inferred)) the “Cys/CySS (mV)” value [1] was −173 mV and the half-life (Intestinal Wash Assay) was under 0.167 h.
CC(=O)N[C@@H]1C(=O)N(C)[C@@H](CCCNC(=N)N)C(=O)N[C@@H](CO)C(=O)N[C@@H](CC(=O)O)C(=O)N[C@@H]([C@@H](C)O)C(=O)N[C@@H](CC(C)C)C(=O)N[C@H](C(=O)N[C@@H](Cc2c[nH]c3ccccc23)C(=O)N[C@H](CCC(=O)O)C(=O)N[C@H](CCCCNC(=O)COCC(=O)NCCCC[C@@H](NC(=O)[C@@H](CCC(=O)O)NC(=O)[C@H](Cc2c[nH]c3ccccc23)NC(=O)[C@H]2NC(=O)[C@H](CC(C)C)NC(=O)[C@H]([C@@H](C)O)NC(=O)[C@H](CC(=O)O)NC(=O)[C@H](CO)NC(=O)[C@H](CCCNC(=N)N)N(C)C(=O)[C@@H](NC(C)=O)C(C)(C)SSC2(C)C)C(=O)O)C(=O)O)C(C)(C)SSC1(C)C [compound 216, (Ac-Pen-N-Me-R-S-D-T-L-Pen-W-e-k-OH)2-DIG] (I: Ac-[Pen][NMeR]SDTL[Pen]W[dE][dK]-OH / II: Ac-[Pen][NMeR]SDTL[Pen]W[dE][dK]-OH; disulfide I:1-I:7, II:1-II:7 (inferred); linker I:10-II:10 via Diglycolyl (inferred)) gave a half-life at 20 μM (Plasma Stability Assay) of over 3 h and a half-life (Intestinal Wash Assay) of over 6 h.
In the case of CC(=O)N[C@@H]1C(=O)N(C)[C@@H](CCCNC(=N)N)C(=O)N[C@@H](CO)C(=O)N[C@@H](CC(=O)O)C(=O)N[C@@H]([C@@H](C)O)C(=O)N[C@@H](CC(C)C)C(=O)N[C@H](C(=O)N[C@@H](Cc2ccc3ccccc3c2)C(=O)N[C@@H](CCC(=O)O)C(=O)N[C@H](CCCCN)C(N)=O)C(C)(C)SSC1(C)C [compound 210, Ac-Pen-N-Me-R-S-D-T-L-Pen-2-Nal-E-k-NH2] (Ac-[Pen][NMeR]SDTL[Pen][2Nal]E[dK]-NH2; disulfide 1-7), the “Cys/CySS (mV)” value [1] is reported as under −300 mV.
For CC(=O)N[C@@H]1C(=O)N(C)[C@@H](CCCNC(=N)N)C(=O)N[C@@H](CO)C(=O)N[C@@H](CC(=O)O)C(=O)N[C@@H]([C@@H](C)O)C(=O)N[C@@H](CC(C)C)C(=O)N[C@H](C(=O)N[C@@H](Cc2c[nH]c3ccccc23)C(=O)N[C@H](CCCCN)C(N)=O)C(C)(C)SSC1(C)C [compound 208, Ac-Pen-N-Me-R-S-D-T-L-Pen-W-k-NH2] (Ac-[Pen][NMeR]SDTL[Pen]W[dK]-NH2; disulfide 1-7), the “Cys/CySS (mV)” value [1] was under −300 mV.
With CC(=O)N[C@@H]1C(=O)N(C)[C@@H](CCCNC(=N)N)C(=O)N[C@@H](CO)C(=O)N[C@@H](CC(=O)O)C(=O)N[C@@H]([C@@H](C)O)C(=O)N[C@@H](CC(C)C)C(=O)N[C@H](C(=O)N[C@@H](Cc2c[nH]c3ccccc23)C(=O)N[C@@H](CCC(=O)O)C(=O)N(C)[C@H](CCCCNC(=O)COCC(=O)NCCCC[C@H](C(N)=O)N(C)C(=O)[C@H](CCC(=O)O)NC(=O)[C@H](Cc2c[nH]c3ccccc23)NC(=O)[C@H]2NC(=O)[C@H](CC(C)C)NC(=O)[C@H]([C@@H](C)O)NC(=O)[C@H](CC(=O)O)NC(=O)[C@H](CO)NC(=O)[C@H](CCCNC(=N)N)N(C)C(=O)[C@@H](NC(C)=O)C(C)(C)SSC2(C)C)C(N)=O)C(C)(C)SSC1(C)C [compound 214, [Ac-Pen-(N-Me-Arg)-Ser-Asp-Thr-Leu-Pen-Trp-Glu-(N-Me-D-Lys)-NH2]2-DIG] (I: Ac-[Pen][NMeR]SDTL[Pen]WE[dNMeK]-NH2 / II: Ac-[Pen][NMeR]SDTL[Pen]WE[dNMeK]-NH2; disulfide I:1-I:7, II:1-II:7 (inferred); linker I:10-II:10 via Diglycolyl (inferred)) the half-life at 20 μM (Plasma Stability Assay) was over 6 h and the half-life (Intestinal Wash Assay) was over 6 h.
